Data on 13 compounds can be found in patent publication US12247028B2, “Azabicyclo and diazepine derivatives” (Alcon Inc., priority 2017, dated 2025).

For orientation: Ki means the equilibrium dissociation constant of an inhibitor or competing ligand from its target. For orientation: inhibition means the drop in the measured response relative to a control, in per cent.

SMILES strings stand for the structures. Read-outs that look alike come from different tables or passages of the source. Some results are limits rather than exact numbers.

In test [1] the target is T1, Human muscarinic receptor M4 (Homo sapiens, UniProt P08173).
T1 construct: host or cells: cell membrane homogenates
T1 sequence (P08173 1-479): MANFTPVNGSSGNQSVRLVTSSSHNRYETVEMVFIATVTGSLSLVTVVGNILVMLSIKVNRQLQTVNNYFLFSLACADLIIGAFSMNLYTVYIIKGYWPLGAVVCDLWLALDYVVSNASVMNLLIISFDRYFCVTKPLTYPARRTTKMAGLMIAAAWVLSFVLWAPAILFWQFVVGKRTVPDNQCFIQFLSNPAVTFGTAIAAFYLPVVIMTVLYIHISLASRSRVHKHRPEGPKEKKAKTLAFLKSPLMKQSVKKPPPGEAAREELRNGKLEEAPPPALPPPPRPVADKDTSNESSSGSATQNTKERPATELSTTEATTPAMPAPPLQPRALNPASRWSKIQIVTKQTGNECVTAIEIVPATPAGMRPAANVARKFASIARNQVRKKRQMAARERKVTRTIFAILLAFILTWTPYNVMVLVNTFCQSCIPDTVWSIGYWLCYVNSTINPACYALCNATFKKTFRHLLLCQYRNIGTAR
In words: Human muscarinic receptor assay M4, [3H]4-DAMP binding. The procedure:
(§1) Human Muscarinic Receptor Assay
Cell membrane homogenates (16 μg protein) are incubated for 60 min at 22° C. with 0.2 nM [3H]4-DAMP in the absence or presence of the test compound in a buffer containing 10 mM Tris-HCl (pH 7.4) and 2 mM EDTA. Nonspecific binding is determined in the presence of 1 μM atropine. Following incubation, the samples are filtered rapidly under vacuum through glass fiber filters (GF/B, Packard) presoaked with 0.3% PEI and rinsed several times with ice-cold 50 mM Tris-HCl using a 96-sample cell harvester (Unifilter, Packard). The filters are dried then counted for radioactivity in a scintillation counter (Topcount, Packard) using a scintillation cocktail (Microscint 0, Packard). The results are expressed as a percent inhibition of the control radioligand specific binding. The standard reference compound is 4-DAMP, which is tested in each experiment at several concentrations to obtain a competition curve from which its Ki and IC50 are calculated.

Test [2] concerns the target T2, Human muscarinic receptor M1 (Homo sapiens, UniProt P11229).
T2 construct: host or cells: cell membrane homogenates
T2 sequence (P11229 1-460): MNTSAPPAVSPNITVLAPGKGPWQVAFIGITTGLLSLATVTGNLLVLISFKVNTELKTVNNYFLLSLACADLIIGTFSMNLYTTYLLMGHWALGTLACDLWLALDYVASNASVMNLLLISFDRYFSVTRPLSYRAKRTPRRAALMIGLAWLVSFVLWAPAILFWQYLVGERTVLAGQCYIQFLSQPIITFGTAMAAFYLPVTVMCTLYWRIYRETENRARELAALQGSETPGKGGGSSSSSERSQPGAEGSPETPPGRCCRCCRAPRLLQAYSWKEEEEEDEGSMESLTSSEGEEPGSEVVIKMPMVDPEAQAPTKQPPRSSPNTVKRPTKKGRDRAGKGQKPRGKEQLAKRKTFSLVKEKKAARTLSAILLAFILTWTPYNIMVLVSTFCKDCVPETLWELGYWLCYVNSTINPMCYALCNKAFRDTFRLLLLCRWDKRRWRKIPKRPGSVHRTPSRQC
In words: Human muscarinic receptor assay M1, [3H]pirenzepine binding. The following applies: 2 nM [3H]pirenzepine, cell membrane homogenates. The method, then:
as §1
Cell membrane homogenates (45 μg protein) are incubated for 60 min at 22° C. with 2 nM [3H]pirenzepine in the absence or presence of the test compound in a buffer containing 50 mM Tris-HCl (pH 7.4), 120 mM NaCl, 5 mM KCl, 5 mM MgCl2 and 1 mM EDTA. Nonspecific binding is determined in the presence of 1 μM atropine. Following incubation, the samples are filtered rapidly under vacuum through glass fiber filters (GF/B, Packard) presoaked with 0.3% PEI and rinsed several times with ice-cold 50 mM Tris-HCl using a 96-sample cell harvester (Unifilter, Packard). The filters are dried then counted for radioactivity in a scintillation counter (Topcount, Packard) using a scintillation cocktail (Microscint 0, Packard). The results are expressed as a percent inhibition of the control radioligand specific binding. The standard reference compound is pirenzepine, which is tested in each experiment at several concentrations to obtain a competition curve from which its Ki and IC50 are calculated.

With `CN1C2CCC1CC(OC(=O)C(C)(CO)c1cccs1)C2` (centres unmarked), the Ki in test [1] was 0.39 nM; in test [2], 2.5 nM.
As for `CN1C2CCC1CC(OC(=O)C(CO)(CC(F)(F)F)c1ccccc1)C2` (centres unmarked), the figures for the Ki in test [1] and in test [2] were 1.7 nM and 8.2 nM, respectively.
The like results for `COCC(C)(C(=O)OC1CC2CCC(C1)N2C)c1ccccc1` (centres unmarked) were, in that order, 7.4 nM and 19 nM.
Consider `COc1ccc(CC(CO)(C(=O)OC2CC3CCC(C2)N3C)c2ccccc2)cc1` (centres unmarked), for which, in test [1] (read-out: percent inhibition of the control radioligand specific binding, M4), the inhibition at 1 µM is below 50%. Also, the Ki in test [2] worked out at 570 nM.
Take `CCC(CO)(C(=O)OC1CC2CCC(C1)N2C)c1ccccc1` (centres unmarked): the Ki in test [1] was found to be 0.71 nM; in test [2], 4.4 nM.
The like results for `CN1C2CCC1CC(OC(=O)C(C)(CO)c1ccccc1)C2` (centres unmarked) were, in that order, 0.58 nM and 3.1 nM.
Turning to `CN1C2CCC1CC(OC(=O)C(CO)(Cc1ccc(F)cc1)c1ccccc1)C2` (centres unmarked), the inhibition constant (Ki) in test [1] amounted to 200 nM; in test [2], 300 nM.
In the case of `CN1C2CCC1CC(OC(=O)C(CO)(CC1CC1)c1ccccc1)C2` (centres unmarked), the inhibitory constant (Ki) in test [1] stood at 0.57 nM; in test [2], 3.4 nM.
Regarding `CN1C2CCC1CC(OC(=O)C(C)(CF)c1ccccc1)C2` (centres unmarked), the results for the inhibition constant (Ki) in test [1] and in test [2] were 5.8 nM and 27 nM, respectively.
Consider `CN1C2CCC1CC(OC(=O)C(CO)(CO)c1ccccc1)C2` (centres unmarked), for which the inhibition constant Ki in test [1] amounted to 3 nM; in test [2], 17 nM.
For `CN1C2CCC1CC(OC(=O)C(F)(CO)c1ccccc1)C2` (centres unmarked), in that order: 0.48 nM and 3.5 nM.
With `CN1C2CCC1CC(OC(=O)C(CO)(Cc1ccccc1)c1ccccc1)C2` (centres unmarked), the inhibitory constant (Ki) in test [1] (0.2 nM [3H]4-DAMP, cell membrane homogenates, read-out: Ki M4) stood at 230 nM; in test [2], 600 nM.
Turning to `CN1C2CCC1CC(NC(=O)C(C)(CO)c1ccccc1)C2` (centres unmarked), the Ki in test [1] came out at 83 nM; in test [2], 230 nM.
